Source: PubChem BioAssay AID1259407 (Chemical Carcinogenesis Research Information System (CCRIS), 2018)
Calls of active or inactive are those of the source. How the calls were made is not given here.

System: CCRIS mutagenicity, Ames/micronucleus/aberration tests
Experiment: CCRIS mutagenicity studies
[1] = Test System: AMES SALMONELLA TYPHIMURIUM, Strain/Indicator: TA97, Metabolic Activation: NONE, Method: PREINCUBATION
[2] = Test System: AMES SALMONELLA TYPHIMURIUM, Strain/Indicator: TA98, Metabolic Activation: NONE, Method: PREINCUBATION
[3] = Test System: AMES SALMONELLA TYPHIMURIUM, Strain/Indicator: TA100, Metabolic Activation: NONE, Method: PREINCUBATION
[4] = Test System: AMES SALMONELLA TYPHIMURIUM, Strain/Indicator: TA1535, Metabolic Activation: NONE, Method: PREINCUBATION
[5] = Test System: AMES SALMONELLA TYPHIMURIUM, Strain/Indicator: TA98, Metabolic Activation: NONE, Method: STANDARD PLATE
[6] = Test System: AMES SALMONELLA TYPHIMURIUM, Strain/Indicator: TA98, Metabolic Activation: RAT, LIVER, S-9, AROCLOR 1254, Method: STANDARD PLATE
[7] = Test System: AMES SALMONELLA TYPHIMURIUM, Strain/Indicator: TA98, Metabolic Activation: RAT, LIVER, S-9, PHENOBARBITAL, Method: STANDARD PLATE
[8] = Test System: AMES SALMONELLA TYPHIMURIUM, Strain/Indicator: TA100, Metabolic Activation: RAT, LIVER, S-9, PHENOBARBITAL, Method: STANDARD PLATE
[9] = Test System: AMES SALMONELLA TYPHIMURIUM, Strain/Indicator: TA1538, Metabolic Activation: RAT, LIVER, S-9, PHENOBARBITAL, Method: STANDARD PLATE
[10] = Test System: AMES SALMONELLA TYPHIMURIUM, Strain/Indicator: TA100, Metabolic Activation: NONE, Method: STANDARD PLATE
[11] = Test System: AMES SALMONELLA TYPHIMURIUM, Strain/Indicator: TA1538, Metabolic Activation: NONE, Method: STANDARD PLATE

CCCCCc1cc(O)c2c(c1)OC(C)(C)[C@@H]1CCC(C)=C[C@@H]21
mutagenic call (Test System: AMES SALMONELLA TYPHIMURIUM, Strain/Indicator: TA97, Metabolic Activation: HAMSTER, LIVER, S-9, AROCLOR 1254 (10 OR 30%), Method: PREINCUBATION): inactive; negative
mutagenic call [1]: inactive; negative
mutagenic call (Test System: AMES SALMONELLA TYPHIMURIUM, Strain/Indicator: TA97, Metabolic Activation: RAT, LIVER, S-9, AROCLOR 1254 (10 OR 30%), Method: PREINCUBATION): inactive; negative
mutagenic call (Test System: AMES SALMONELLA TYPHIMURIUM, Strain/Indicator: TA98, Metabolic Activation: HAMSTER, LIVER, S-9, AROCLOR 1254 (10 OR 30%), Method: PREINCUBATION): inactive; negative
mutagenic call [2]: inactive; negative
mutagenic call (Test System: AMES SALMONELLA TYPHIMURIUM, Strain/Indicator: TA98, Metabolic Activation: RAT, LIVER, S-9, AROCLOR 1254 (10 OR 30%), Method: PREINCUBATION): inactive; negative
mutagenic call (Test System: AMES SALMONELLA TYPHIMURIUM, Strain/Indicator: TA100, Metabolic Activation: HAMSTER, LIVER, S-9, AROCLOR 1254 (10 OR 30%), Method: PREINCUBATION): inactive; negative
mutagenic call [3]: inactive; negative
mutagenic call (Test System: AMES SALMONELLA TYPHIMURIUM, Strain/Indicator: TA100, Metabolic Activation: RAT, LIVER, S-9, AROCLOR 1254 (10 OR 30%), Method: PREINCUBATION): inactive; negative
mutagenic call (Test System: AMES SALMONELLA TYPHIMURIUM, Strain/Indicator: TA1535, Metabolic Activation: HAMSTER, LIVER, S-9, AROCLOR 1254 (10 OR 30%), Method: PREINCUBATION): inactive; negative
mutagenic call [4]: inactive; negative
mutagenic call (Test System: AMES SALMONELLA TYPHIMURIUM, Strain/Indicator: TA1535, Metabolic Activation: RAT, LIVER, S-9, AROCLOR 1254 (10 OR 30%), Method: PREINCUBATION): inactive; negative

Cc1cc(O)ccc1N
mutagenic call (Test System: MOUSE LYMPHOMA, Strain/Indicator: L5178Y (TK+/TK-), Metabolic Activation: NONE, Method: SUSPENSION/PLATE): active; positive. reevaluation of results: equivocal
mutagenic call (Test System: MOUSE LYMPHOMA, Strain/Indicator: L5178Y (TK+/TK-), Metabolic Activation: RAT, LIVER, S-9, AROCLOR 1254, Method: SUSPENSION/PLATE): inactive; negative. reevaluation of results: inconclusive

Cc1ccc(/C(C#N)=C\C=C\c2ccccc2[N+](=O)[O-])cc1
mutagenic call (Test System: AMES SALMONELLA TYPHIMURIUM, Strain/Indicator: TA97A, Metabolic Activation: NONE, Method: STANDARD PLATE): active; positive

COc1cc(NC(C)=O)ccc1NC(C)=O
mutagenic call [5]: inactive; negative
mutagenic call [6]: inactive; negative

c1ccc(-c2ccccn2)nc1
mutagenic call (Test System: AMES SALMONELLA TYPHIMURIUM, Strain/Indicator: TA97, Metabolic Activation: RAT, LIVER, S-9, PHENOBARBITAL, Method: STANDARD PLATE): active; positive
mutagenic call [7]: active; positive
mutagenic call [8]: active; positive
mutagenic call (Test System: AMES SALMONELLA TYPHIMURIUM, Strain/Indicator: TA1535, Metabolic Activation: RAT, LIVER, S-9, PHENOBARBITAL, Method: STANDARD PLATE): inactive; negative
mutagenic call (Test System: AMES SALMONELLA TYPHIMURIUM, Strain/Indicator: TA1537, Metabolic Activation: RAT, LIVER, S-9, PHENOBARBITAL, Method: STANDARD PLATE): inactive; negative
mutagenic call [9]: inactive; negative

CCC[CH2][Sn]([Cl])([Cl])[CH2]CCC
mutagenic call (Test System: AMES SALMONELLA TYPHIMURIUM, Strain/Indicator: TA98, Metabolic Activation: NONE, Method: SUSPENSION/PLATE): inactive; negative
mutagenic call (Test System: AMES SALMONELLA TYPHIMURIUM, Strain/Indicator: TA100, Metabolic Activation: NONE, Method: SUSPENSION/PLATE): inactive; negative

CC(=O)Nc1ccc2c(c1)[nH]c1ccccc12
mutagenic call [5]: active; positive
mutagenic call [7]: active; positive
mutagenic call [10]: inactive; negative
mutagenic call [8]: inactive; negative
mutagenic call (Test System: AMES SALMONELLA TYPHIMURIUM, Strain/Indicator: TA1537, Metabolic Activation: NONE, Method: STANDARD PLATE): inactive; negative
mutagenic call [11]: active; positive
mutagenic call [9]: active; positive
mutagenic call (Test System: AMES SALMONELLA TYPHIMURIUM, Strain/Indicator: TA1977, Metabolic Activation: NONE, Method: STANDARD PLATE): inactive; negative
mutagenic call (Test System: AMES SALMONELLA TYPHIMURIUM, Strain/Indicator: TA1977, Metabolic Activation: RAT, LIVER, S-9, PHENOBARBITAL, Method: STANDARD PLATE): inactive; negative

O=c1cccc2c1ccc1[nH]c3ccc4ccccc4c3cc12
mutagenic call (Test System: AMES SALMONELLA TYPHIMURIUM, Strain/Indicator: TA100, Metabolic Activation: GUINEA PIG, LIVER, S-9, 3-METHYLCHOLANTHRENE, Method: STANDARD PLATE): inactive; negative
mutagenic call (Test System: CHINESE HAMSTER V-79, Strain/Indicator: V-79/6-THIOGUANINE, Metabolic Activation: GUINEA PIG, LIVER, S-9, 3-METHYLCHOLANTHRENE): inactive; negative

O=S(=O)(O)C1C(O)c2c(cc3ccc4cccc5ccc2c3c45)C(O)C1O (centres undefined)
mutagenic call [2]: inactive; negative

CCS(=O)CCSP(=O)(OC)OC (centres undefined)
mutagenic call (Test System: AMES SALMONELLA TYPHIMURIUM, Strain/Indicator: TA97, Metabolic Activation: HAMSTER, LIVER, S-9, AROCLOR 1254 (10%), Method: PREINCUBATION): inactive; negative
mutagenic call [1]: inactive; negative
mutagenic call (Test System: AMES SALMONELLA TYPHIMURIUM, Strain/Indicator: TA97, Metabolic Activation: RAT, LIVER, S-9, AROCLOR 1254 (10%), Method: PREINCUBATION): inactive; negative
mutagenic call (Test System: AMES SALMONELLA TYPHIMURIUM, Strain/Indicator: TA98, Metabolic Activation: HAMSTER, LIVER, S-9, AROCLOR 1254 (10%), Method: PREINCUBATION): inactive; negative
mutagenic call [2]: inactive; negative
mutagenic call (Test System: AMES SALMONELLA TYPHIMURIUM, Strain/Indicator: TA98, Metabolic Activation: RAT, LIVER, S-9, AROCLOR 1254 (10%), Method: PREINCUBATION): inactive; negative
mutagenic call (Test System: AMES SALMONELLA TYPHIMURIUM, Strain/Indicator: TA100, Metabolic Activation: HAMSTER, LIVER, S-9, AROCLOR 1254 (10%), Method: PREINCUBATION): active; positive
mutagenic call [3]: inactive; negative
mutagenic call (Test System: AMES SALMONELLA TYPHIMURIUM, Strain/Indicator: TA100, Metabolic Activation: RAT, LIVER, S-9, AROCLOR 1254 (10%), Method: PREINCUBATION): active; positive
mutagenic call (Test System: AMES SALMONELLA TYPHIMURIUM, Strain/Indicator: TA1535, Metabolic Activation: HAMSTER, LIVER, S-9, AROCLOR 1254 (10%), Method: PREINCUBATION): active; positive
mutagenic call [4]: active; positive
mutagenic call (Test System: AMES SALMONELLA TYPHIMURIUM, Strain/Indicator: TA1535, Metabolic Activation: RAT, LIVER, S-9, AROCLOR 1254 (10%), Method: PREINCUBATION): active; positive

Oc1c(Cl)cc(Cl)c2cccnc12
mutagenic call [2]: inactive; negative
mutagenic call (Test System: AMES SALMONELLA TYPHIMURIUM, Strain/Indicator: TA98, Metabolic Activation: RAT, LIVER, S-9, Method: PREINCUBATION): inactive; negative
mutagenic call [3]: inactive; negative
mutagenic call (Test System: AMES SALMONELLA TYPHIMURIUM, Strain/Indicator: TA100, Metabolic Activation: RAT, LIVER, S-9, Method: PREINCUBATION): inactive; negative

COc1cc(N=Nc2ccc(N(CCO)CCO)cc2)ccc1N=Nc1c(S(=O)(=O)O)cc2ccc(N)cc2c1O
mutagenic call [5]: inactive; negative
mutagenic call [6]: active; positive
mutagenic call [10]: inactive; negative
mutagenic call (Test System: AMES SALMONELLA TYPHIMURIUM, Strain/Indicator: TA100, Metabolic Activation: RAT, LIVER, S-9, AROCLOR 1254, Method: STANDARD PLATE): inactive; negative
mutagenic call [11]: inactive; negative
mutagenic call (Test System: AMES SALMONELLA TYPHIMURIUM, Strain/Indicator: TA1538, Metabolic Activation: RAT, LIVER, S-9, AROCLOR 1254, Method: STANDARD PLATE): active; positive
